Measurements reported in US20250304623A1, “PEPTIDES FOR INTRACELLULAR DELIVERY” (UNIVERSIDADE DE SANTIAGO DE COMPOSTELA, priority 2022, published 2025).
*: point of attachment. NHNH2 = NN*

How the values were obtained:
Assay type in all cases: cell-based
[1] = system: A549 cells; assay: RLuc pDNA delivery, robotic library screening, A549
Description: (§1) Cells were seeded in a 96 well plate the day before the experiment at a concentration of 60,000 cell/mL (100 μL/w) in DMEM+10% FBS+1% Gln-Abt. For robotic library screening, the delivery of pDNA encoding for the expression of Renilla luciferase gene (RLuc, pRL-CMV (Promega, #E2261)) in six different cell lines was performed. Amphihilic molecule stock solutions in DMSO were diluted with DMEM and freshly mixed with pDNA stock solutions in DMEM prior to transfection experiments, to afford several complexes at different amphiphile concentration (2-10 μM) while maintaining a constant final pDNA concentration of 2 ng/μL. The mixture was shaken for 30 min at room temperature before the addition to the cells. The cell medium was aspirated, and cells were washed twice with PBS. Finally, 50 μL of the complex's solution were added to the cells and incubated for 4 h. After the incubation, the medium was replaced by 100 μL of fresh DMEM supplemented with 10% FBS. 72 hours after transfection the DMEM was removed, cells were washed once with HBSS and 90 μL of HBSS were added to each well. Cells were incubated at 37° C. for 30 minutes. Then basal luminescence levels were read in a plate reader. Immediately, 10 μL of coelenterazine h in HBSS were added to each well (5 μM final concentration) and cells were incubated at 37° C. for 10 minutes. Finally, the total luminescence measurement of the plates was performed. Amphiphile transfection efficiency was compared and normalized to Lipofectamine® 2000 efficiency (value of 1 in Tables 1-5 and 7; bold numbers). All experiments were done in triplicate.
(§2) Tables 1-7: RLuc (pDNA) or EGFP (mRNA) expression levels were normalized to Lipofectamine reagents (value=1) and expressed as fold-times signal increase. In the case of siRNA, the siRNA treated cells fluorescence was compared with siMOCK control fluorescence, while Cas9-RNP mediated knockout was measured against the fluorescence of untreated cells. In both siRNA and Cas9-RNP, values are expressed as % fluorescence reduction. Amphiphile concentration was 5 μM in all cases. All experiments were performed in triplicate.
(§3) Tables 8-13 show the mean (triplicates) luminescent intensity (RLU) measured after the transfection of RLuc pDNA by different amphiphiles at different concentrations in a variety of cell lines. Background luminescence values, accounted by untransfected control cells, were subtracted for processing.

[2] = system: ARPE19 cells; assay: RLuc pDNA delivery, robotic library screening, ARPE19
[3] = system: HCT116 cells; assay: RLuc pDNA delivery, robotic library screening, HCT116
[4] = system: Hek293 cells; assay: RLuc pDNA delivery, robotic library screening, Hek293
[5] = system: Hela cells; assay: RLuc pDNA delivery, robotic library screening, HeLa; settings: Hela
Description: as §1, with “Amphihilic molecule stock solutions in DMSO were diluted with DMEM and freshly mixed with pDNA stock solutions in DMEM prior to transfection experiments, to afford several complexes at different amphiphile concentration (2-10 μM) while maintaining a constant final pDNA concentration of 2 ng/μL.” left out
as §2, §3

[6] = system: HepG2 cells; assay: RLuc pDNA delivery, robotic library screening, HepG2
Description: as §1, §2, §3

Row | Substance | mean luminescent intensity (RLuc pDNA) ([1]; Oleyl, 5 μM) [RLU] | mean luminescent intensity (RLuc pDNA) ([1]; Palmitoleyl, 5 μM) [RLU] | mean luminescent intensity (RLuc pDNA) ([1]; Petroselinyl, 15 μM) [RLU] | mean luminescent intensity (RLuc pDNA) ([2]; Myristoleyl, 5 μM) [RLU] | mean luminescent intensity (RLuc pDNA) ([2]; Myristoleyl, 10 μM) [RLU] | mean luminescent intensity (RLuc pDNA) ([2]; Myristoleyl, 15 μM) [RLU] | mean luminescent intensity (RLuc pDNA) ([2]; Palmitoleyl, 5 μM) [RLU] | mean luminescent intensity (RLuc pDNA) ([2]; Petroselinyl, 5 μM) [RLU] | mean luminescent intensity (RLuc pDNA) ([3]; Myristoleyl, 5 μM) [RLU] | mean luminescent intensity (RLuc pDNA) ([3]; Myristoleyl, 15 μM) [RLU] | mean luminescent intensity (RLuc pDNA) ([3]; Palmitoleyl, 5 μM) [RLU] | mean luminescent intensity (RLuc pDNA) ([3]; Petroselinyl, 5 μM) [RLU] | mean luminescent intensity (RLuc pDNA) ([4]; Palmitoleyl, 10 μM) [RLU] | mean luminescent intensity (RLuc pDNA) ([4]; Petroselinyl, 5 μM) [RLU] | mean luminescent intensity (RLuc pDNA) ([4]; Petroselinyl, 10 μM) [RLU] | mean luminescent intensity (RLuc pDNA) ([5]; Myristoleyl, 5 μM) [RLU] | mean luminescent intensity (RLuc pDNA) ([5]; Myristoleyl, 10 μM) [RLU] | mean luminescent intensity (RLuc pDNA) ([5]; Myristoleyl, 15 μM) [RLU] | mean luminescent intensity (RLuc pDNA) ([5]; Palmitoleyl, 5 μM) [RLU] | mean luminescent intensity (RLuc pDNA) ([6]; Oleyl, 5 μM) [RLU] | also measured
1 | Ac-RK*RRK*K*R-NH2 (Ac-RK(NHNH2)RRK(NHNH2)K(NHNH2)R-NH2; not fully specified; printed as Ac-RK*RRK*K*R-NH2; also: K*2,K*5,K*6: native or modified lysine (ε-amide to a linker)) [7.3(L-R)] | 13651 | 5366 | 7194 | 522 | 20 | 56 | 2987 | 2177 | 7939 | −41 | 22225 | 2832 | 115755 | 9983 | 59396 | 3647 | 2076 | 22 | 62538 | 1696 | mean luminescent intensity (RLuc pDNA) ([1]; Palmitoleyl, 15 μM): 12440 RLU; mean luminescent intensity (RLuc pDNA) ([3]; Myristoleyl, 10 μM): −83 RLU; mean luminescent intensity (RLuc pDNA) ([3]; Palmitoleyl, 10 μM): 41280 RLU; mean luminescent intensity (RLuc pDNA) ([3]; Petroselinyl, 10 μM): 9686 RLU; mean luminescent intensity (RLuc pDNA) ([4]; Myristoleyl, 5 μM): 46216 RLU; mean luminescent intensity (RLuc pDNA) ([4]; Myristoleyl, 10 μM): 51837 RLU; mean luminescent intensity (RLuc pDNA) ([4]; Myristoleyl, 15 μM): 10351 RLU; mean luminescent intensity (RLuc pDNA) ([4]; Palmitoleyl, 5 μM): 73751 RLU; mean luminescent intensity (RLuc pDNA) ([4]; Palmitoleyl, 15 μM): 29282 RLU; mean luminescent intensity (RLuc pDNA) ([4]; Petroselinyl, 15 μM): 8037 RLU; mean luminescent intensity (RLuc pDNA) ([5]; Palmitoleyl, 10 μM): 25113 RLU; mean luminescent intensity (RLuc pDNA) ([5]; Palmitoleyl, 15 μM): 3405 RLU; mean luminescent intensity (RLuc pDNA) ([5]; Petroselinyl, 5 μM): 4972 RLU; mean luminescent intensity (RLuc pDNA) ([6]; Oleyl, 10 μM): 22303 RLU; mean luminescent intensity (RLuc pDNA) ([6]; Oleyl, 15 μM): 6498 RLU
2 | Ac-RRLK*RK*LRRLK*RL-NH2 (Ac-RRLK(NHNH2)RK(NHNH2)LRRLK(NHNH2)RL-NH2; not fully specified; printed as Ac-RRLK*RK*LRRLK*RL-NH2; also: K*4,K*6,K*11: native or modified lysine (ε-amide to a linker)) [13(2 + 1)] | 3288 | 22640 | 2435 | 2549 | −28 | −36 | 5094 | 4118 | 70015 | 1114 | 105588 | 70216 | 59470 | 78739 | 31561 | 564 | 379 | 452 | 1206 | 116466 | mean luminescent intensity (RLuc pDNA) ([1]; Dodecanal, 5 μM): 24508 RLU; mean luminescent intensity (RLuc pDNA) ([1]; Dodecanal, 10 μM): 1332 RLU; mean luminescent intensity (RLuc pDNA) ([1]; Myristoleyl, 5 μM): 11594 RLU; mean luminescent intensity (RLuc pDNA) ([1]; Myristoleyl, 10 μM): 2240 RLU; mean luminescent intensity (RLuc pDNA) ([1]; Palmitoleyl, 10 μM): 4550 RLU; mean luminescent intensity (RLuc pDNA) ([1]; Petroselinyl, 5 μM): 19295 RLU; mean luminescent intensity (RLuc pDNA) ([2]; Dodecanal, 5 μM): 10116 RLU; mean luminescent intensity (RLuc pDNA) ([3]; Dodecanal, 5 μM): 132238 RLU; mean luminescent intensity (RLuc pDNA) ([3]; Dodecanal, 10 μM): 6721 RLU; mean luminescent intensity (RLuc pDNA) ([3]; Dodecanal, 15 μM): 2207 RLU; mean luminescent intensity (RLuc pDNA) ([4]; Dodecanal, 5 μM): 269506 RLU; mean luminescent intensity (RLuc pDNA) ([6]; Dodecanal, 5 μM): 322366 RLU; mean luminescent intensity (RLuc pDNA) ([6]; Dodecanal, 10 μM): 17040 RLU; mean luminescent intensity (RLuc pDNA) ([6]; Dodecanal, 15 μM): 2698 RLU; mean luminescent intensity (RLuc pDNA) ([6]; Myristoleyl, 5 μM): 418253 RLU; mean luminescent intensity (RLuc pDNA) ([6]; Myristoleyl, 10 μM): 85339 RLU; mean luminescent intensity (RLuc pDNA) ([6]; Myristoleyl, 15 μM): 23239 RLU; mean luminescent intensity (RLuc pDNA) ([6]; Palmitoleyl, 5 μM): 353987 RLU; mean luminescent intensity (RLuc pDNA) ([6]; Palmitoleyl, 10 μM): 97075 RLU; mean luminescent intensity (RLuc pDNA) ([6]; Petroselinyl, 5 μM): 168828 RLU
